Reference: patent US20230054976A1, “METHODS FOR INHIBITION OF ALPHA-SYNUCLEIN mRNA USING SMALL MOLECULES” (The Scripps Research Institute, priority 2019, published 2023)

Experiments:
[1] = test system: control plasmid lacking 5′ UTR; assay: In vitro translation assay, control lacking 5′ UTR; type: biochemical
Experimental: Luciferase assay. The effect of Synucleozid treatment on translation from various IRE containing transcripts was determined using luciferase reporter assay. SH-SY5Y cells stably expressing 5' UTR were treated with Synucleozid for 48 h, washed with PBS and lysed with Passive Lysis Buffer for 15 min at room temperature. Luciferase reporter activity in each lysate was monitored using the dual luciferase reporter assay system kit (Promega. Madison, Wis., USA) according to the manufacturer's instructions. Luminescence from firefly luciferase reaction was measured using a microplate luminometer (Wallac 1420, Perkin Elmer) at 485 nm excitation and 535 nm emission wavelengths. Firefly luciferase reaction was then quenched by adding Stop & Glo reagent, and the internal fluorescence from GFP measured at the same setting was used to normalize luciferase expression. Luciferase reporter activity was expressed as percent change compared to the respective vehicle-treated control cells. In vitro translation assay. The mRNA template for in vitro translational assays was transcribed from the pIRES-Luc-EGFP-puro and pCDH-α-syn-5'-UTR-Luc-EGFP-puro plasmids by using an in vitro transcription system (RiboMax, Promega) with forward primer: [NT] and reverse primer: [NT]. […] Translation proceeded at 30° C. for 90 min, and then luminescence was measured with a Biomek FLx800 plate reader (1.0 s integration time).

[2] = test system: 32P-labeled SNCA IRE hairpin RNA; assay: RNase H-mediated ASO-Bind-Map; type: binding, human
Experimental: RNase H-mediated ASO-Bind-Map. SNCA IRE hairpin RNA was 5′-end labeled with [γ-^32P]ATP and T4 kinase as previously described^5. Approximately, 5 pmoles of ^32P labeled IRE RNA per reaction was folded in 1× RNase H buffer (New England Biolabs) by heating to 65° C. for 5 min and slowly cooling to room temperature. Serially diluted concentrations of Synucleozid were added to the RNA solutions and incubated at room temperature for 30 min. One of ASOs was then added to a final concentration of 500 nM, followed by incubation at room temperature for 30 min. Next, 0.05 U/μL RNase H (New England Biolabs) was added into each RNA-ligand mixture, and the samples were incubated for 20 min. Reactions were quenched by incubating at 65° C. for 20 min. T
Two ladders were generated to identify the positions of RNase H cleavage. Each guanosine (G) residue was identified by using RNase T1 under denaturing conditions as described above. Likewise, a hydrolysis ladder was generated as described above. Reactions were stopped by addition of an equal volume of 2× Loading Buffer. Fragments were separated on a denaturing 15% polyacrylamide gel and imaged using a BioRad PMI phosphorimager. Images were quantified with BioRad's QuantityOne software.

ferritin 5′ UTR = assay: Luciferase reporter assay, ferritin 5′ UTR, SH-SY5Y cells; type: cell-based, human; conditions: 1 μM
[3] = test system: RNA-2 to 5 (other non-canonically paired regions replaced with base pairs); assay: Competitive binding assay (2-AP), RNA-2 to 5
Experimental: I and I0 are the observed fluorescence intensity in the presence and absence of 2-AP RNA. Δε is the difference between the fluorescence intensity in the absence and presence of infinite 2-AP RNA. […] EC50 was calculated from Eq. (1). […] The change of fluorescence intensity was fit to Eq. (2):
θ is the percentage of 2-AP RNA bound. [RNA] is the concentration of 2-AP RNA. EC50 is the EC50 of Synucleozid determined in the assay above. [Synucleozid] is the concentration of Synucleozid. Cc is the concentration of competitive RNA. Kd is competitive dissociation constant and A is a constant.

[4] = biological target: T1, IRP-1:SNCA IRE RNA complex (Homo sapiens, UniProt P21399); assay: In vitro displacement of IRPs by gel mobility shift assay, IRP-1; type: binding; conditions: 0.2, 1, 5 μM; pre-incubation 1-60 min
T1 construct: purchased Abnova
Experimental: In vitro displacement of IRPs by gel mobility shift assays. SNCA IRE hairpin RNA was 5′-end labeled with [γ-^32P]ATP as previously described^5. Approximately, 2 pmoles of ^32P labeled RNA per 20 μL reaction was folded in 1× Assay Buffer by heating at 65° C. for 5 min and slowly cooling to room temperature. As indicated, vehicle, Synucleozid (0.2, 1, 5 μM) or unlabeled IRE RNA (1 μM, folded as described above and used as a positive control) was added to the samples, and the samples were incubated at room temperature for varying amounts of time (1-60 min as indicated). Then, 0.5 μg IRP-1 or IRP-2 (Abnova) was added, and the samples were incubated at room temperature for an additional 30 min. An equal volume of 2× Native Gel Loading Buffer (2×TBE, 50% Glycerol, 0.025% (w/v) Bromophenol blue and Xylene cyanol FF) was added to each sample. Note, Native Gel Loading Buffer added to Synucleozid-treated samples was supplemented with the same concentration of Synucleozid as in the sample to maintain a constant concentration. IRP:IRE complexes and free IRE were separated on a native 15% polyacrylamide prepared 1×TBE supplemented with the same concentration of Synucleozid as in compound-treated samples, and imaged using a Bio-Rad PMI phosphorimager. Images were quantified with BioRad's Quantity One software.

T1 sequence (P21399 whole entry, species assumed, one chain of several): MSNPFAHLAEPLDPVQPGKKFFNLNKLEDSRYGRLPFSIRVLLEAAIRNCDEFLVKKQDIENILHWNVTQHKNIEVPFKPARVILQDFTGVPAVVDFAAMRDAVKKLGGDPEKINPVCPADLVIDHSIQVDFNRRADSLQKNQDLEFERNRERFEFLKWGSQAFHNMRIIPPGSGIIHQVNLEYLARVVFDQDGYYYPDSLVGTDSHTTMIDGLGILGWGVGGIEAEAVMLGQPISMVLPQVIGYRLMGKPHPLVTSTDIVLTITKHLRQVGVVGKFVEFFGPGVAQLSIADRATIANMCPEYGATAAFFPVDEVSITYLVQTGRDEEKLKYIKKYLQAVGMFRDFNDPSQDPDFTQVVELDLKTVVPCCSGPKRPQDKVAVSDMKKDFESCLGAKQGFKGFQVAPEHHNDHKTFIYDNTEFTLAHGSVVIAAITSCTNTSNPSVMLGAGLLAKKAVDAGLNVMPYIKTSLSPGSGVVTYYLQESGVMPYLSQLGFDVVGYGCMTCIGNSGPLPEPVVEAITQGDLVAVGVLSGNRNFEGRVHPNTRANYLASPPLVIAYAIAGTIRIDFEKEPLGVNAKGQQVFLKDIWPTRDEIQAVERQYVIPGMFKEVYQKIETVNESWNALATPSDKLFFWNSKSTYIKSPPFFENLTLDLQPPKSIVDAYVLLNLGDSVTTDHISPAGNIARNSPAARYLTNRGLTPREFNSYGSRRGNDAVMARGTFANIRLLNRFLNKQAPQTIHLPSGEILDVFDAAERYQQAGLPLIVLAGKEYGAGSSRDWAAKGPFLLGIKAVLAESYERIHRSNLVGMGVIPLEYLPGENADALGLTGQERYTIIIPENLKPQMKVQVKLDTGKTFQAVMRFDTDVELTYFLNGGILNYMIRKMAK

N=C(N)c1ccc(Nc2ccc(-c3cc4ccc(C(=N)N)cc4[nH]3)cc2)cc1 [Synucleozid A]
inhibitory effect on construct lacking SNCA 5′ UTR [1]: No inhibitory effect
protection from RNase H cleavage, ASOs hybridized with sites other than A bulge ([2]; 1 μM): no protection from cleavage
protection of the IRE from RNase H cleavage ([2]; 0.1, 1, and 10 μM, ASO (1-10) and ASO (40-50) overlap with the A bulge): only observed with ASOs whose binding sites overlap with the A bulge
inhibition of translation, luciferase fused to ferritin 5′ UTR (ferritin 5′ UTR): ~10%
effect of mutation on Synucleozid binding [3]: no effect
effect on binding of IRP-1 to SNCA IRE RNA [4]: Neither Synucleozid concentration (0.2, 1, 5 μM) nor pre-incubation time (1, 5, 15, 60 min) has any significant effect
